Assay results: patent US20260034112A1, “MULTI-CYCLIC IRAK1 AND IRAK4 INHIBITING COMPOUNDS AND USES THEREOF” (CHILDREN'S HOSPITAL MEDICAL CENTER, priority 2022, published 2026)

Test system: THP1 cells
Format: cell-based, human
Settings: CA-4948 vs DMSO in THP1 cells

Cc1cc(-c2nc(C(=O)Nc3cc4oc(N5CCOCC5)nc4nc3N3CC[C@@H](O)C3)co2)ccn1 [CA-4948, emavusertib]
Log(FC) of gene LOC101929243: 0.7647
Log(FC) of gene LOC101929264: 0.8417
Log(FC) of gene LOC101929280: 0.7936
Log(FC) of gene LOC101929661: 0.748
Log(FC) of gene LOC101929747: 0.6127
Log(FC) of gene LOC101929814: −0.8463
Log(FC) of gene LOC102467073: 0.73
Log(FC) of gene LOC102723589: 0.8153
Log(FC) of gene LOC102723616: 0.7122
Log(FC) of gene LOC102723714: 0.6674
Log(FC) of gene LOC102723959: 0.9881
Log(FC) of gene LOC102723975: 1.408
Log(FC) of gene LOC102724098: −0.6399
Log(FC) of gene LOC102724169: 0.726
Log(FC) of gene LOC102724217: 0.6865
Log(FC) of gene LOC102724235: 0.7375
Log(FC) of gene LOC102724248: 0.652
Log(FC) of gene LOC102724409: 1.429
Log(FC) of gene LOC102724528: −0.8481
Log(FC) of gene LOC102724545: 0.8513
Log(FC) of gene LPAR2: 0.7255
Log(FC) of gene M1AP: 0.7754
Log(FC) of gene MAMDC4: 0.628
Log(FC) of gene MBLAC1: −0.6134
Log(FC) of gene MDGA1: 0.7307
Log(FC) of gene METTL12: 0.6315
Log(FC) of gene MFI2-AS1: 0.5997
Log(FC) of gene MGC12916: −0.9124
Log(FC) of gene MGC16142: 0.5952
Log(FC) of gene MIR570: 1.064
Log(FC) of gene MIR1244-1: 0.6309
Log(FC) of gene MIR3187: 1.121
Log(FC) of gene MROH6: 0.8417
Log(FC) of gene MYLK-AS1: 1.091
Log(FC) of gene MYO7B: 0.6068
Log(FC) of gene NGFR: 0.8097
Log(FC) of gene NOL3: 0.6401
Log(FC) of gene NPFF: 0.6633
Log(FC) of gene NPIPA3: 1.643
Log(FC) of gene NPIPA8: 0.8183
Log(FC) of gene ORM1: 0.6834
Log(FC) of gene PAPPA2: 0.8397
Log(FC) of gene PAQR6: 0.6274
Log(FC) of gene PAX8: −0.6687
Log(FC) of gene PCBP3: 0.5937
Log(FC) of gene PCOLCE2: −0.6424
Log(FC) of gene PDE5A: 0.8121
Log(FC) of gene PDPN: 0.7486
Log(FC) of gene PITX2: 0.6882
Log(FC) of gene POLN: 1.016
Log(FC) of gene POTEE: 1.077
Log(FC) of gene PPIEL: 0.6279
Log(FC) of gene PPP1R13L: 0.6598
Log(FC) of gene PPP1R32: 0.5902
Log(FC) of gene PROB1: 0.6297
Log(FC) of gene PRR22: 1.272
Log(FC) of gene PRSS53: 0.79
Log(FC) of gene PSMG3-AS1: 0.6249
Log(FC) of gene PTGER1: 0.6218
Log(FC) of gene QRICH2: 0.9066
Log(FC) of gene RAPGEFL1: 0.6118
Log(FC) of gene RARRES3: 0.6342
Log(FC) of gene RASSF8-AS1: −0.6459
Log(FC) of gene RCN3: 0.6431
Log(FC) of gene RIMS2: −0.6856
Log(FC) of gene RN7SK: −0.7805
Log(FC) of gene RN7SL1: −0.6652
Log(FC) of gene RNU2-2P: −3.126
Log(FC) of gene RNU86: 0.6578
Log(FC) of gene RNU105A: −0.7199
Log(FC) of gene RP3-476K8.3: 0.6781
Log(FC) of gene RP11-261C10.3: −0.7243
Log(FC) of gene RP11-307C12.11: 0.6268
Log(FC) of gene RP11-344E13.3: 0.712
Log(FC) of gene RP11-454P21.1: 0.5869
Log(FC) of gene RP11-540A21.2: −0.8218
Log(FC) of gene RPPH1: −1.864
Log(FC) of gene RPS18P9: 0.9157
Log(FC) of gene RPSAP9: −0.6976
Log(FC) of gene RUFY4: 0.9698
Log(FC) of gene SAMD5: −0.6977
Log(FC) of gene SAMD13: −0.6418
Log(FC) of gene SAP25: 0.962
Log(FC) of gene SARM1: 0.783
Log(FC) of gene SCART1: 1.38
Log(FC) of gene SCN8A: 0.7836
Log(FC) of gene SCXB: 0.8721
Log(FC) of gene SEC31B: 0.7359
Log(FC) of gene SEMA3B: 0.6963
Log(FC) of gene SEMA3C: −0.6821
Log(FC) of gene SEMG1: −0.6203
Log(FC) of gene SERPINB2: −0.6225
Log(FC) of gene SIGLEC16: 0.7305
Log(FC) of gene SIM1: −0.8741
Log(FC) of gene SLC2A14: 0.5944
Log(FC) of gene SLC7A5P2: 0.8202
Log(FC) of gene SLC7A11: −0.9711
Log(FC) of gene SLC22A20: 0.7923
Log(FC) of gene SLC25A5-AS1: −0.5981
Log(FC) of gene SLCO2B1: −0.6999
Log(FC) of gene SLFNL1: 0.599
Log(FC) of gene SLFNL1-AS1: 0.7053
Log(FC) of gene SMA4: −0.6311
Log(FC) of gene SNORD3A: −1.579
Log(FC) of gene SNORD30: 1.062
Log(FC) of gene SNORD79: 0.5858
Log(FC) of gene SNX32: 0.6555
Log(FC) of gene SPATA41: 0.6171
Log(FC) of gene SPATC1: 1.175
Log(FC) of gene SPRED1: −0.6296
Log(FC) of gene SPTBN5: 1.272
Log(FC) of gene ST13P4: −0.623
Log(FC) of gene STX18-AS1: 0.8594
Log(FC) of gene STXBP5-AS1: 0.6561
Log(FC) of gene SYDE2: −0.6236
Log(FC) of gene SYTL2: 0.7254
Log(FC) of gene TCAM1P: 0.6669
Log(FC) of gene TEKT4P2: 0.8324
Log(FC) of gene TESPA1: 0.724
Log(FC) of gene TLR5: 0.7065
Log(FC) of gene TMEM9B-AS1: 0.8758
Log(FC) of gene TMEM86B: 0.6481
Log(FC) of gene TMEM145: 0.9943
Log(FC) of gene TMEM150A: −0.8108
Log(FC) of gene TMEM175: 0.6594
Log(FC) of gene TMEM191A: 0.6824
Log(FC) of gene TMEM254-AS1: 0.767
Log(FC) of gene TMEM255A: −0.5904
Log(FC) of gene TMPRSS13: 0.6639
Log(FC) of gene TNFAIP8L2-SCNM1: −1.749
Log(FC) of gene TNXB: 1.806
Log(FC) of gene TP53I3: 0.7187
Log(FC) of gene TPD52L1: 0.7014
Log(FC) of gene TRIM72: 0.5946
Log(FC) of gene TSKU: −0.6402
Log(FC) of gene TSPEAR-AS1: 0.5855
Log(FC) of gene TTC4: −0.6304
Log(FC) of gene TUBA1A: 0.5916
Log(FC) of gene TXLNB: 0.8051
Log(FC) of gene UCN: 1.177
Log(FC) of gene UCP3: 0.6963
Log(FC) of gene ULK4P1: −0.9282
Log(FC) of gene UNC5CL: 0.8031
Log(FC) of gene VAMP5: 0.6392
Log(FC) of gene VWA7: 0.8656
Log(FC) of gene WDFY3-AS2: 0.6617
Log(FC) of gene WNK4: 1.507
Log(FC) of gene WT1-AS: 0.6396
Log(FC) of gene YJEFN3: 1.024
Log(FC) of gene ZCWPW2: −0.722
Log(FC) of gene ZDHHC11: 1.406
Log(FC) of gene ZNF284: −0.5982
Log(FC) of gene ZNF491: 0.7713
Log(FC) of gene ZNF891: −0.7965
Log(FC) of gene ZP3: 0.9339
Log(FC) of gene ZSWIM8-AS1: 0.9316
